Measurements published in patent US11149018B2, “Substituted N-arylethyl-2-aminoquinoline-4-carboxamides and use thereof” (Bayer Aktiengesellschaft, priority 2017, dated 2021).

target: FP receptor (Homo sapiens (Human), UniProt P43088); assay: In vitro test of inhibition of human FP receptor activity (PGF2α-induced calcium flux in FP-expressing CHEM1 cells); assay type: cell-based; conditions: PGF2α 2 nM, some mean values of multiple determinations
Experimental: B-1. In Vitro Test of Inhibition of Human FP Receptor Activity
For the characterization of test substances in respect of FP antagonism, PGF2α-induced calcium flux in FP-expressing CHEM1 cells (Millipore, HTS093C) was used.
10 μl of the prediluted substance solution are added to the Fluo-8-laden cells and incubated at 37° C., 5% CO2 for 10 minutes. The FP receptor is activated by adding 40 μl of 2 nM (final concentration) PGF2α in calcium-free Tyrode, 2 mM CaCl2, 0.002% SmartBlock, and the calcium flux is determined by measuring the fluorescence at ex. 470 nm/[…].
Table 1 below lists the IC50 values from this assay for individual working examples of the invention (some as mean values from multiple independent individual determinations): […]

Sequence of FP receptor (P43088 whole entry): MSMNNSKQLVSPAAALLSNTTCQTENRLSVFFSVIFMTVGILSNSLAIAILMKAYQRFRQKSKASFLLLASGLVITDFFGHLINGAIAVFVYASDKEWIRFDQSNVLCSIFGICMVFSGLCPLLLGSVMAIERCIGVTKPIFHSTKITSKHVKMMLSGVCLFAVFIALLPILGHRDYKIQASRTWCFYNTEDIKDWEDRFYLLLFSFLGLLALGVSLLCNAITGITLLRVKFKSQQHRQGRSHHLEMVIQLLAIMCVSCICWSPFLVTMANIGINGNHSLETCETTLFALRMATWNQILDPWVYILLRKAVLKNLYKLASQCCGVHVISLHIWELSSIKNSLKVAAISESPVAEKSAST

Molecule	IC50
Cc1c(N2CCCC(C)(C)C2)nc2ccc(Br)cc2c1C(=O)NCC(CCC(=O)O)c1ccccc1Cl (single isomer, unassigned; (-)) [Example 43, (−)-5-({[6-Bromo-2-(3,3-dimethylpiperidin-1-yl)-3-methylquinolin-4-yl]carbonyl}amino)-4-(2-chlorophenyl)pentanoic acid]	90 nM
Cc1c(N2CCCC(F)C2)nc2ccc(Br)cc2c1C(=O)NCC(CCC(=O)O)c1ccccc1C(F)(F)F (single isomer, unassigned; (+)) [Example 189, (+)-5-[({6-Bromo-2-[3-fluoropiperidin-1-yl]-3-methylquinolin-4-yl}carbonyl)amino]-4-[2-(trifluoromethyl)phenyl]pentanoic acid]	25 nM
Cc1c(N2CCCC2)nc2ccc(Br)cc2c1C(=O)NCC(CCC(=O)O)c1cc(F)ccc1F (racemic) [Example 258, (+/−)-5-({[6-Bromo-3-methyl-2-(pyrrolidin-1-yl)quinolin-4-yl]carbonyl}amino)-4-(2,5-difluorophenyl)pentanoic acid]	80 nM
Cc1c(N2CCCCC2)nc2ccc(Br)cc2c1C(=O)NCC(CC(=O)O)c1c(F)cccc1Cl (racemic) [Example 1, (+/−)-4-({[6-Bromo-3-methyl-2-(piperidin-1-yl)quinolin-4-yl]carbonyl}amino)-3-(2-chloro-6-fluorophenyl)butanoic acid]	26 nM
CCC1CCCN(c2nc3ccc(Br)cc3c(C(=O)NCC(CCC(=O)O)c3ccccc3Cl)c2C)C1 (single isomer, unassigned; (-)) [Example 59, (−)-5-[({6-Bromo-2-[3-ethylpiperidin-1-yl]-3-methylquinolin-4-yl}carbonyl)amino]-4-(2-chlorophenyl)pentanoic acid]	11 nM
Cc1c(NCc2ccccc2)nc2ccc(Br)cc2c1C(=O)NCC(CCC(=O)O)c1ccccc1Cl (racemic) [Example 96, (+/−)-5-({[2-(Benzylamino)-6-bromo-3-methylquinolin-4-yl]carbonyl}amino)-4-(2-chlorophenyl)pentanoic acid]	950 nM
Cc1c(N2CCCC(F)(F)C2)nc2ccc(Br)cc2c1C(=O)NCC(CCC(=O)O)c1c(F)cccc1F (single isomer, unassigned; (-)) [Example 252, (−)-5-({[6-Bromo-2-(3,3-difluoropiperidin-1-yl)-3-methylquinolin-4-yl]carbonyl}amino)-4-(2,6-difluorophenyl)pentanoic acid]	9.4 nM
Cc1c(N2CCCC(F)(F)C2)nc2ccc(Br)cc2c1C(=O)NCC(CCC(=O)O)c1c(F)cccc1C(F)(F)F (racemic) [Example 166, (+/−)-5-({[6-Bromo-2-(3,3-difluoropiperidin-1-yl)-3-methylquinolin-4-yl]carbonyl}amino)-4-[2-fluoro-6-(trifluoromethyl)phenyl]pentanoic acid]	9.5 nM
Cc1c(N2CCCC(C(C)C)C2)nc2ccc(Br)cc2c1C(=O)NCC(CCC(=O)O)c1ccccc1Cl (stereo not drawn) [Example 91, 5-[({6-Bromo-2-[3-isopropylpiperidin-1-yl]-3-methylquinolin-4-yl}carbonyl)amino]-4-(2-chlorophenyl)pentanoic acid]	9.9 nM
Cc1c(N2CCC(F)(F)CC2)nc2ccc(Br)cc2c1C(=O)NCC(CCC(=O)O)c1cc(F)ccc1Cl (racemic) [Example 8, (+/−)-5-({[6-Bromo-2-(4,4-difluoropiperidin-1-yl)-3-methylquinolin-4-yl]carbonyl}amino)-4-(2-chloro-5-fluorophenyl)pentanoic acid]	58 nM
Cc1c(N2CCCC2)nc2ccc(Br)cc2c1C(=O)NCC(CCC(=O)O)c1ccccc1C(F)(F)F (single isomer, unassigned; (-)) [Example 280, (−)-5-[({6-Bromo-3-methyl-2-[(^2H8)pyrrolidin-1-yl]quinolin-4-yl}carbonyl)amino]-4-[2-(trifluoromethyl)phenyl]pentanoic acid]	2.4 nM
Cc1c(N2CCCC(O)C2)nc2ccc(Br)cc2c1C(=O)NCC(CCC(=O)O)c1ccccc1Cl (stereo not drawn) [Example 55, 5-[({6-Bromo-2-[3-hydroxypiperidin-1-yl]-3-methylquinolin-4-yl}carbonyl)amino]-4-(2-chlorophenyl)pentanoic acid]	110 nM
Cc1c(N2CCCCC2)nc2ccc(Br)cc2c1C(=O)NCC(CCC(=O)O)c1c(F)cccc1OC(F)F (racemic) [Example 182, (+/−)-5-({[6-Bromo-3-methyl-2-(piperidin-1-yl)quinolin-4-yl]carbonyl}amino)-4-[2-(difluoromethoxy)-6-fluorophenyl]pentanoic acid]	2.9 nM
COc1ccccc1C(CCC(=O)O)CNC(=O)c1c(C)c(N2CCCC(F)(F)C2)nc2ccc(Br)cc12 (single isomer, unassigned; (+)) [Example 289, (+)-5-({[6-Bromo-2-(3,3-difluoropiperidin-1-yl)-3-methylquinolin-4-yl]carbonyl}amino)-4-(2-methoxyphenyl)pentanoic acid]	2.4 nM
CCC1CCCN(c2nc3ccc(Br)cc3c(C(=O)NCC(CCC(=O)O)c3ccccc3OC(F)(F)F)c2C)C1 (single isomer, unassigned; (-)) [Example 207, (−)-5-[({6-Bromo-2-[3-ethylpiperidin-1-yl]-3-methylquinolin-4-yl}carbonyl)amino]-4-[2-(trifluoromethoxy)phenyl]pentanoic acid]	22 nM
Cc1c(N2CCCC(C)C2)nc2ccc(Br)cc2c1C(=O)NCC(CCC(=O)O)c1ccccc1OC(F)(F)F (single isomer, unassigned; (+)) [Example 212, (+)-5-[({6-Bromo-3-methyl-2-[3-methylpiperidin-1-yl]quinolin-4-yl}carbonyl)amino]-4-[2-(trifluoromethoxy)phenyl]pentanoic acid]	1.9 nM
CCC1CCCN(c2nc3ccc(Br)cc3c(C(=O)NCC(CCC(=O)O)c3ccccc3C(F)(F)F)c2C)C1 (single isomer, unassigned) [Example 195, 5-[({6-Bromo-2-[3-ethylpiperidin-1-yl]-3-methylquinolin-4-yl}carbonyl)amino]-4-[2-(trifluoromethyl)phenyl]pentanoic acid]	77 nM
CCC1CCCN(c2nc3ccc(Br)cc3c(C(=O)NCC(CCC(=O)O)c3c(F)ccc(F)c3Cl)c2C)C1 (stereo not drawn) [Example 158, 5-[({6-Bromo-2-[3-ethylpiperidin-1-yl]-3-methylquinolin-4-yl}carbonyl)amino]-4-(2-chloro-3,6-difluorophenyl)pentanoic acid]	1.6 nM
(+)-5-[({6-Bromo-3-methyl-2-[(^2H8)pyrrolidin-1-yl]quinolin-4-yl}carbonyl)amino]-4-[2-(trifluoromethyl)phenyl]pentanoic acid [Example 278]	34 nM
Cc1c(N2CCSCC2)nc2ccc(Br)cc2c1C(=O)NCC(CCC(=O)O)c1ccccc1Cl (racemic) [Example 25, (+/−)-5-({[6-Bromo-3-methyl-2-(thiomorpholin-4-yl)quinolin-4-yl]carbonyl}amino)-4-(2-chlorophenyl)pentanoic acid]	22 nM
Cc1c(N2CCCC2)nc2ccc(Br)cc2c1C(=O)NCC(CCC(=O)O)c1c(F)cccc1C(F)(F)F (racemic) [Example 163, (+/−)-5-({[6-Bromo-3-methyl-2-(pyrrolidin-1-yl)quinolin-4-yl]carbonyl}amino)-4-[2-fluoro-6-(trifluoromethyl)phenyl]pentanoic acid]	11 nM
Cc1ccccc1C(CCC(=O)O)CNC(=O)c1c(C)c(N2CCCCCC2)nc2ccc(Br)cc12 (racemic) [Example 243, (+/−)-5-({[2-(Azepan-1-yl)-6-bromo-3-methylquinolin-4-yl]carbonyl}amino)-4-(2-methylphenyl)pentanoic acid]	11 nM
Cc1c(N2CC(F)(F)C(F)(F)C2)nc2ccc(Br)cc2c1C(=O)NCC(CCC(=O)O)c1ccccc1Cl (racemic) [Example 72, (+/−)-5-({[6-Bromo-3-methyl-2-(3,3,4,4-tetrafluoropyrrolidin-1-yl)quinolin-4-yl]carbonyl}amino)-4-(2-chlorophenyl)pentanoic acid]	80 nM
Cc1ccc(F)cc1C(CCC(=O)O)CNC(=O)c1c(C)c(N2CCCC(F)(F)C2)nc2ccc(Br)cc12 (single isomer, unassigned; (-)) [Example 213, (−)-5-({[6-Bromo-2-(3,3-difluoropiperidin-1-yl)-3-methylquinolin-4-yl]carbonyl}amino)-4-(5-fluoro-2-methylphenyl)pentanoic acid]	10 nM
Cc1c(N2CCCC(F)C2)nc2ccc(Br)cc2c1C(=O)NCC(CCC(=O)O)c1ccccc1Cl (single isomer, unassigned; (+)) [Example 187, (+)-5-[({6-Bromo-2-[3-fluoropiperidin-1-yl]-3-methylquinolin-4-yl}carbonyl)amino]-4-(2-chlorophenyl)pentanoic acid]	24 nM
Cc1c(N2CCCC(C)C2)nc2ccc(Br)cc2c1C(=O)NCC(CCC(=O)O)c1ccccc1C(F)(F)F (single isomer, unassigned; (+)) [Example 197, (+)-5-[({6-Bromo-3-methyl-2-[3-methylpiperidin-1-yl]quinolin-4-yl}carbonyl)amino]-4-[2-(trifluoromethyl)phenyl]pentanoic acid]	21 nM
Cc1c(N2CCCC(C)C2)nc2ccc(Br)cc2c1C(=O)NCC(CCC(=O)O)c1c(F)ccc(F)c1Cl (stereo not drawn) [Example 157, 5-[({6-Bromo-3-methyl-2-[3-methylpiperidin-1-yl]quinolin-4-yl}carbonyl)amino]-4-(2-chloro-3,6-difluorophenyl)pentanoic acid]	1.7 nM
